Experimental data published in patent publication US12178880B2, “Antibody-drug conjugate, and intermediate thereof, preparation method therefor, and application thereof” (SHANGHAI FUDAN-ZHANGJIANG BIO-PHARMACEUTICAL CO., LTD., priority 2020, dated 2024).
Read-outs that look alike come from different tables or passages of the source. *1 amine or outer side, *2 acyl side, *3 side chain or, on linkers, in order; H or OH if unused. Where a SMILES comes first, the peptide text is derived from it. [ ]: non-standard residue; d: D form. The star is where a group is joined. X1 = CC[C@@]1(O)C(=O)OCc2c1cc1n(c2=O)Cc2c-1nc1cc(F)c(C)c3c1c2[C@H](N*)CC3; Hexanoyl(6-maleimido) = O=C1C=CC(=O)N1CCCCCC(=O)*; NHCH2OCH2CO = O=C(COCN[*:1])[*:2]

Assays:
tissue proteinase B = tissue proteinase B (Homo sapiens, UniProt P07858); assay: In vitro enzyme digestion of linker-drug conjugates; format: biochemical; conditions: for speed of enzyme digestion (in words): pH 5.0 to 7.0
Procedure: The linker-drug conjugate (LE14 and GGFG-Dxd) was co-incubated with tissue proteinase B in three different pH (5.0, 6.0, 7.0) buffers. Samples were taken at different time points and entered into a high-performance liquid chromatography-mass spectrometry instrument. The external standard method (with DXD as the external standard) was used to determine the release percentage of the drug.

[1] = Coupling of linker-drug conjugates with other antibodies; format: physicochemical
SK-BR-3 cell line = assay: Killing activity of FDA026-LS13 before and after enzyme digestion; format: cell-based; conditions: 144 hours
Procedure: SK-BR-3 cell line was selected as the experimental cells. After the sample was incubated in tissue proteinase B system (100 mM sodium acetate-acetic acid buffer, 4 mM dithiothreitol, pH 5.0) at 37° C. for 4 hours, the obtained sample was diluted with culture medium to different concentrations. 8 concentrations (1.5 to 10-fold dilution) were set from 70 nM to 0.003 nM of SN-38 concentration. […] The IC50 value was calculated by reading the […] after chemical luminescent staining with CellTiter-Glo® Luminescent Cell Viability Assay.

SMILES	Percentage of drug release in the sample (tissue proteinase B; pH 5.0, 0 h) [%]	Percentage of drug release in the sample (tissue proteinase B; pH 5.0, 1 h) [%]	Percentage of drug release in the sample (tissue proteinase B; pH 5.0, 2 h) [%]	Percentage of drug release in the sample (tissue proteinase B; pH 5.0, 3 h) [%]	Percentage of drug release in the sample (tissue proteinase B; pH 5.0, 4 h) [%]	Percentage of drug release in the sample (tissue proteinase B; pH 5.0, 5 h) [%]	Percentage of drug release in the sample (tissue proteinase B; pH 5.0, 6 h) [%]	speed of enzyme digestion (in words) (tissue proteinase B)	Percentage of drug release in the sample (tissue proteinase B; pH 6.0, 0 h) [%]	Percentage of drug release in the sample (tissue proteinase B; pH 6.0, 1 h) [%]	Percentage of drug release in the sample (tissue proteinase B; pH 6.0, 2 h) [%]	Percentage of drug release in the sample (tissue proteinase B; pH 6.0, 3 h) [%]	Percentage of drug release in the sample (tissue proteinase B; pH 6.0, 4 h) [%]	Percentage of drug release in the sample (tissue proteinase B; pH 6.0, 5 h) [%]	Percentage of drug release in the sample (tissue proteinase B; pH 6.0, 6 h) [%]	Percentage of drug release in the sample (tissue proteinase B; pH 7.0, 0 h) [%]	Percentage of drug release in the sample (tissue proteinase B; pH 7.0, 1 h) [%]	Percentage of drug release in the sample (tissue proteinase B; pH 7.0, 2 h) [%]	Percentage of drug release in the sample (tissue proteinase B; pH 7.0, 3 h) [%]	Percentage of drug release in the sample (tissue proteinase B; pH 7.0, 4 h) [%]	other results
CC[C@@]1(O)C(=O)OCc2c1cc1n(c2=O)Cc2c-1nc1cc(F)c(C)c3c1c2[C@H](NC(=O)COCNC(=O)CNC(=O)[C@H](Cc1ccccc1)NC(=O)CNC(=O)CNC(=O)CCCCCN1C(=O)C=CC1=O)CC3 [GGFG-Dxd, reference compound] ({Hexanoyl(6-maleimido)}-GGFG[NHCH2OCH2CO]-X1)	21.62	25	25.85	27.76	29.72	31.69	34.17	slow speed of enzyme digestion	23.58	24.8	27.02	29.29	31.37	33.05	35.95	22.98	26.53	29.52	31.95	34.78	Percentage of drug release in the sample (tissue proteinase B; pH 7.0, 5 h): 36.17%; Percentage of drug release in the sample (tissue proteinase B; pH 7.0, 6 h): 38.25%; aggregation ratio when coupled with other antibodies [1]: high aggregation ratio; precipitation when coupled with other antibodies [1]: produces precipitation
CC[C@@]1(O)C(=O)OCc2c1cc1n(c2=O)Cc2c-1nc1cc(F)c(C)c3c1c2[C@@H](NC(=O)COCN(CCS(C)(=O)=O)C(=O)OCc1ccc(NC(=O)[C@H](C)NC(=O)[C@@H](NC(=O)CCCCCN2C(=O)C=CC2=O)C(C)C)cc1)CC3 [LE14]	15	96.93	98.35	99.01	99.21	99.32	97.39	quickly enzymatically digested	14.28	95.98	96.8	98.45	98.81	98.9	99	17.59	98.05	99.08	99.33	99.2	Percentage of drug release in the sample (tissue proteinase B; pH 7.0, 5 h): 100%; Percentage of drug release in the sample (tissue proteinase B; pH 7.0, 6 h): 99.39%
CCc1c2c(nc3ccc(O)cc13)-c1cc3c(c(=O)n1C2)COC(=O)[C@]3(O)CC [SN-38, 7-ethyl-10-hydroxycamptothecin]																					IC50 (SK-BR-3 cell line; read-out: IC50 (based on SN-38 equivalent) Before Enzyme Digestion): 7.13 nM; IC50 (SK-BR-3 cell line; after tissue proteinase B system, pH 5.0, 37° C., 4 hours, read-out: IC50 (based on SN-38 equivalent) After Enzyme Digestion): 7.32 nM
